In patent US9161990B2, “Hydrochloride salts of a glycopeptide-cephalosporin antbiotic compond” (THERAVANCE BIOPHARMA ANTIBIOTICS IP, LLC, priority 2013, dated 2015):
Where a name gives a salt, the structure may show the parent alone.

Key:
[1] = Storage stability of lyophilized hydrochloride salts (purity by HPLC); assay type: physicochemical; details: for Purity (HPLC area percent) / Δ (change in percent purity from time = 0) / decrease in purity: dihydrochloride; for decrease in purity: listed as dihydrochloride salt
Protocol: (§1) All solvents were HPLC grade and were purchased from Honeywell Burdick & Jackson (Muskegon, Mich. 49442). Phosphoric acid (85% w/w) and sodium dihydrogen phosphate were HPLC grade and were purchased from Fluka (Sigma-Aldrich, St. Louis, Mo. 63103). All reagents were used without further purification.
(§2) Test samples were filtered through a 0.2 μm polyvinylidene fluoride (PVDF) filter before analysis and the first 1 mL was discarded.
(§3) Test sample purity was determined based on the integrated peak area (area-under-the-curve or AUC) for the compound as a percentage of all integrated peaks. The concentration (assay value) of the compound in a test sample was determined by comparison with a reference standard.
(§4) One rack was stored protected from light in a drawer at room temperature and the other rack was stored in a refrigerator at 2 to 8° C. A representative vial of each type of stability sample was analyzed by HPLC after storage for 1, 3, 6 and 12 months to determine purity.

[2] = Storage stability of hydrochloride salts in a lyophilized composition containing sucrose and glycine (purity by HPLC); assay type: physicochemical; details: for Δ (change in percent purity from time = 0) / Purity (HPLC area percent): composition containing sucrose and glycine; for Δ (change in percent purity from time = 0) / Purity (HPLC area percent) / decrease in purity: dihydrochloride; for decrease in purity: formulated with sucrose and glycine, listed as dihydrochloride salt
Protocol: as §1, §2, §3, §4

[3] = refrigerated temperature (2 to 8° C.), 1 month
[4] = refrigerated temperature (2 to 8° C.), 3 months
[5] = refrigerated temperature (2 to 8° C.), 6 months
[6] = refrigerated temperature (2 to 8° C.), 12 months
[7] = room temperature, 1 month, listed as Di HCl
[8] = room temperature, 3 months, listed as Di HCl
[9] = room temperature, 6 months, listed as Di HCl
[10] = room temperature, 12 months, listed as Di HCl
[11] = stored at 2 to 8° C. for 12 months
[12] = stored at room temperature for 12 months

CN[C@H](CC(C)C)C(=O)NC1C(=O)N[C@@H](CC(N)=O)C(=O)N[C@H]2C(=O)N[C@H]3C(=O)N[C@H](C(=O)N[C@H](C(=O)NCCCO/N=C(\C(=O)N[C@@H]4C(=O)N5C(C(=O)[O-])=C(C[n+]6ccccc6)CS[C@H]45)c4nc(N)sc4Cl)c4cc(O)cc(O)c4-c4cc3ccc4O)[C@H](O)c3ccc(c(Cl)c3)Oc3cc2cc(c3O[C@@H]2O[C@H](CO)[C@@H](O)[C@H](O)[C@H]2O[C@H]2C[C@](C)(N)[C@H](O)[C@H](C)O2)Oc2ccc(cc2Cl)[C@H]1O (stereo partly drawn) [Dihydrochloride, 26-[[[3-[[(Z)-[1-(2-amino-5-chloro-4-thiazolyl)-2-[[(6R,7R)-2-carboxy-8-oxo-3-(pyridiniomethyl)-5-thia-1-azabicyclo[4.2.0]oct-2-en-7-yl]amino]-2-oxoethylidene]amino]oxy]propyl]amino]carbonyl]-26-decarboxyvancomycin dihydrochloride]
Purity (HPLC area percent) [1, 3]: 89.9%
Δ (change in percent purity from time = 0) [1, 3]: −0.2%
Purity (HPLC area percent) [1, 4]: 89.4%
Δ (change in percent purity from time = 0) [1, 4]: −0.7%
Δ (change in percent purity from time = 0) [1, 5]: 0.7%
Purity (HPLC area percent) [1, 6]: 87.2%
Δ (change in percent purity from time = 0) [1, 6]: −2.9%
Purity (HPLC area percent) ([1]; refrigerated temperature (2 to 8° C.), time 0 months): 90.1%
Purity (HPLC area percent) ([1]; room temperature, 1 month): 85.3%
Δ (change in percent purity from time = 0) ([1]; room temperature, 1 month): −4.8%
Purity (HPLC area percent) [1, 7]: 85.3%
Δ (change in percent purity from time = 0) [1, 7]: −4.8%
Purity (HPLC area percent) ([1]; room temperature, 3 months): 82.5%
Δ (change in percent purity from time = 0) ([1]; room temperature, 3 months): −7.6%
Purity (HPLC area percent) [1, 8]: 82.5%
Δ (change in percent purity from time = 0) [1, 8]: −7.6%
Purity (HPLC area percent) ([1]; room temperature, 6 months): 81.4%
Δ (change in percent purity from time = 0) ([1]; room temperature, 6 months): −8.7%
Purity (HPLC area percent) [1, 9]: 81.4%
Δ (change in percent purity from time = 0) [1, 9]: −8.7%
Purity (HPLC area percent) ([1]; room temperature, 12 months): 69.6%
Δ (change in percent purity from time = 0) ([1]; room temperature, 12 months): −20.5%
Purity (HPLC area percent) [1, 10]: 69.6%
Δ (change in percent purity from time = 0) [1, 10]: −20.5%
Purity (HPLC area percent) ([1]; room temperature, time 0 months): 90.1%
Purity (HPLC area percent) ([1]; room temperature, time 0 months, listed as Di HCl): 90.1%
decrease in purity [1, 11]: 2.9%
decrease in purity [1, 12]: 20.5%
storage stability compared to the trihydrochloride salt ([1]; stored for 12 months at either room temperature or 2 to 8° C.): significantly more stable than the trihydrochloride salt
Δ (change in percent purity from time = 0) [2, 3]: −0.3%
Purity (HPLC area percent) [2, 4]: 89.4%
Δ (change in percent purity from time = 0) [2, 4]: −0.7%
Δ (change in percent purity from time = 0) [2, 5]: 0.7%
Purity (HPLC area percent) [2, 6]: 87.2%
Δ (change in percent purity from time = 0) [2, 6]: −2.9%
Δ (change in percent purity from time = 0) ([2]; room temperature, 1 month): −0.8%
Δ (change in percent purity from time = 0) ([2]; room temperature, 3 months): −2.9%
Δ (change in percent purity from time = 0) ([2]; room temperature, 6 months): 0.2%
Δ (change in percent purity from time = 0) ([2]; room temperature, 12 months): −6.8%
decrease in purity [2, 11]: 2.9%
decrease in purity [2, 12]: 6.8%
storage stability when formulated with sucrose and glycine ([2]; stored at room temperature for 12 months, compared to the salt alone): more stable
